# Source: PubChem BioAssay (NCI)
#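 Tested at 5 concentrations; 48 h exposure; 96-well plates; endpoints linearly interpolated, else capped at highest concentration. TGI: total growth inhibition.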
# Assays:
# Assay in all cases: growth of human tumour cells (NCI), 48 h
# [1] = tested on: 786-0 renal
# [2] = tested on: A498 renal
# [3] = tested on: A549 NSCLC
# [4] = tested on: ACHN renal
# [5] = tested on: CAKI-1 renal
# [6] = tested on: CCRF-CEM leukemia
# [7] = tested on: COLO 205 colon
# [8] = tested on: DLD-1 colon
# [9] = tested on: DMS 114 small cell lung
# [10] = tested on: DMS 273 small cell lung
# [11] = tested on: EKVX NSCLC
# [12] = tested on: HCC-2998 colon
# [13] = tested on: HCT-116 colon
# [14] = tested on: HCT-15 colon
# [15] = tested on: HL-60(TB) leukemia
# [16] = tested on: HOP-18 NSCLC
# [17] = tested on: HOP-62 NSCLC
# [18] = tested on: HOP-92 NSCLC
# [19] = tested on: HT29 colon
# [20] = tested on: IGROV1 ovarian
# [21] = tested on: K-562 leukemia
# [22] = tested on: KM12 colon
# [23] = tested on: KM20L2 colon
# [24] = tested on: LXFL 529 NSCLC
# [25] = tested on: M14 melanoma
# [26] = tested on: M19-MEL melanoma
# [27] = tested on: MALME-3M melanoma
# [28] = tested on: MOLT-4 leukemia
# [29] = tested on: NCI-H226 lung
# [30] = tested on: NCI-H23 lung
# [31] = tested on: NCI-H460 lung
# [32] = tested on: NCI-H522 lung
# [33] = tested on: OVCAR-4 ovarian
# [34] = tested on: OVCAR-5 ovarian
# [35] = tested on: OVCAR-8 ovarian
# [36] = tested on: RPMI-8226 leukemia
# [37] = tested on: RXF 393 renal
# [38] = tested on: SF-268 CNS
# [39] = tested on: SF-295 CNS
# [40] = tested on: SF-539 CNS
# [41] = tested on: SK-MEL-2 melanoma
# [42] = tested on: SK-MEL-28 melanoma
# [43] = tested on: SK-MEL-5 melanoma
# [44] = tested on: SK-OV-3 ovarian
# [45] = tested on: SN12C renal
# [46] = tested on: SNB-19 CNS
# [47] = tested on: SNB-75 CNS
# [48] = tested on: SNB-78 CNS
# [49] = tested on: SW-620 colon
# [50] = tested on: TK-10 renal
# [51] = tested on: U251 CNS
# [52] = tested on: UACC-257 melanoma
# [53] = tested on: UACC-62 melanoma
# [54] = tested on: UO-31 renal
# [55] = tested on: XF 498 CNS
# [56] = tested on: LOX IMVI melanoma
# [57] = tested on: OVCAR-3 ovarian
# [58] = tested on: SR leukemia
smiles,measurement,setting,value
COc1cc(CCCC(O)COc2cccc3c2C2(O)CCCCCC32)cc(OC)c1 (centres undefined),TGI,[1],28.7 µM
same,TGI,[2],34.1 µM
same,TGI,[3],30.8 µM
same,TGI,[4],29.4 µM
same,TGI,[5],44.4 µM
same,TGI,[6],> 100 µM
same,TGI,[7],5.4 µM
same,TGI,[8],36.6 µM
same,TGI,[9],23.4 µM
same,TGI,[10],34.8 µM
same,TGI,[11],30.6 µM
same,TGI,[12],17.9 µM
same,TGI,[13],31.5 µM
same,TGI,[14],34 µM
same,TGI,[15],45.9 µM
same,TGI,[16],33.1 µM
same,TGI,[17],28.7 µM
same,TGI,[18],19.9 µM
same,TGI,[19],23.9 µM
same,TGI,[20],28.5 µM
same,TGI,[21],31.1 µM
same,TGI,[22],34.5 µM
same,TGI,[23],28.1 µM
same,TGI,[24],33.5 µM
same,TGI,[25],35.7 µM
same,TGI,[26],32.7 µM
same,TGI,[27],31.8 µM
same,TGI,[28],48.2 µM
same,TGI,[29],33.9 µM
same,TGI,[30],32.6 µM
same,TGI,[31],34.7 µM
same,TGI,[32],42.1 µM
same,TGI,[33],40.6 µM
same,TGI,[34],31.5 µM
same,TGI,[35],37.8 µM
same,TGI,[36],42 µM
same,TGI,[37],43.2 µM
same,TGI,[38],32.9 µM
same,TGI,[39],30.5 µM
same,TGI,[40],28.1 µM
same,TGI,[41],35.7 µM
same,TGI,[42],31.1 µM
same,TGI,[43],20.5 µM
same,TGI,[44],38.5 µM
same,TGI,[45],31.8 µM
same,TGI,[46],32 µM
same,TGI,[47],30.2 µM
same,TGI,[48],43.3 µM
same,TGI,[49],31.6 µM
same,TGI,[50],28.1 µM
same,TGI,[51],32.9 µM
same,TGI,[52],32.5 µM
same,TGI,[53],30.6 µM
same,TGI,[54],28.9 µM
same,TGI,[55],35.8 µM
CC12CC3CC(C)(C1)CC(N=[N+]=[N-])(C3)C2,TGI,[1],> 100 µM
same,TGI,[2],> 100 µM
same,TGI,[3],> 100 µM
same,TGI,[4],> 100 µM
same,TGI,[5],> 100 µM
same,TGI,[6],> 100 µM
same,TGI,[7],> 100 µM
same,TGI,[8],> 100 µM
same,TGI,[9],> 100 µM
same,TGI,[10],> 100 µM
same,TGI,[11],> 100 µM
same,TGI,[12],> 100 µM
same,TGI,[13],> 100 µM
same,TGI,[16],> 100 µM
same,TGI,[17],> 100 µM
same,TGI,[18],> 100 µM
same,TGI,[19],> 100 µM
same,TGI,[20],> 100 µM
same,TGI,[21],> 100 µM
same,TGI,[22],> 100 µM
same,TGI,[56],> 100 µM
same,TGI,[24],> 100 µM
same,TGI,[25],> 100 µM
same,TGI,[26],> 100 µM
same,TGI,[27],> 100 µM
same,TGI,[28],> 100 µM
same,TGI,[29],> 100 µM
same,TGI,[30],> 100 µM
same,TGI,[31],> 100 µM
same,TGI,[32],> 100 µM
same,TGI,[57],> 100 µM
same,TGI,[33],> 100 µM
same,TGI,[34],> 100 µM
same,TGI,[35],> 100 µM
same,TGI,[36],> 100 µM
same,TGI,[38],> 100 µM
same,TGI,[39],> 100 µM
same,TGI,[40],> 100 µM
same,TGI,[41],> 100 µM
same,TGI,[42],> 100 µM
same,TGI,[43],> 100 µM
same,TGI,[44],> 100 µM
same,TGI,[45],> 100 µM
same,TGI,[46],> 100 µM
same,TGI,[47],> 100 µM
same,TGI,[48],> 100 µM
same,TGI,[58],> 100 µM
same,TGI,[49],> 100 µM
same,TGI,[50],> 100 µM
same,TGI,[51],> 100 µM
same,TGI,[52],> 100 µM
same,TGI,[53],> 100 µM
same,TGI,[54],> 100 µM
same,TGI,[55],> 100 µM
